Reference: ChEMBL document CHEMBL1201862, “PubChem BioAssay data set” (2004)
Activity calls are given as the source filed them.

What was measured:
[1] = THP-1 cell cytotoxicity, dose response, cytotoxicity control, set 3 (AID 504852); format: functional; conditions: Mycobacterium tuberculosis
[2] = Vero cell cytotoxicity, cytotoxicity control for M. tuberculosis inhibitor project, purified and synthesized samples, set 3 (AID 504684); format: functional
[3] = biological target: Serine/threonine-protein kinase Chk1 (Homo sapiens, UniProt O14757); format: functional;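 also: measured as one member of a kinome-wide kinase profiling panel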
[4] = biological target: Dual specificity mitogen-activated protein kinase kinase 1 (Homo sapiens, UniProt Q02750); assay: Navigating the Kinome. Panel member name: MAP2K1; format: functional
[5] = biological target: DNA dC->dU-editing enzyme APOBEC-3G (Homo sapiens, UniProt Q9HC16); assay: APOBEC3G deaminase inhibitors, SAR follow-up, biochemical, fluorescence, single-stranded DNA substrate (AID 602136); format: functional; conditions: read-out: IC50_Mean
[6] = biological target: DNA dC->dU-editing enzyme APOBEC-3A (Homo sapiens, UniProt P31941); assay: SAR analysis of small molecule inhibitors of APOBEC3A DNA Deaminase via a fluorescence-based single-stranded DNA deaminase assay.; format: functional; conditions: read-out: IC50_Mean
[7] = biological target: T1, Apoptotic protease-activating factor 1 (Homo sapiens, UniProt O14727); assay: SAR analysis of small molecule Inhibitors of Apaf-1 in a Fluorescent assay - set 2.; format: functional; conditions: read-out: IC50_Mean
T1 sequence (O14727 whole entry): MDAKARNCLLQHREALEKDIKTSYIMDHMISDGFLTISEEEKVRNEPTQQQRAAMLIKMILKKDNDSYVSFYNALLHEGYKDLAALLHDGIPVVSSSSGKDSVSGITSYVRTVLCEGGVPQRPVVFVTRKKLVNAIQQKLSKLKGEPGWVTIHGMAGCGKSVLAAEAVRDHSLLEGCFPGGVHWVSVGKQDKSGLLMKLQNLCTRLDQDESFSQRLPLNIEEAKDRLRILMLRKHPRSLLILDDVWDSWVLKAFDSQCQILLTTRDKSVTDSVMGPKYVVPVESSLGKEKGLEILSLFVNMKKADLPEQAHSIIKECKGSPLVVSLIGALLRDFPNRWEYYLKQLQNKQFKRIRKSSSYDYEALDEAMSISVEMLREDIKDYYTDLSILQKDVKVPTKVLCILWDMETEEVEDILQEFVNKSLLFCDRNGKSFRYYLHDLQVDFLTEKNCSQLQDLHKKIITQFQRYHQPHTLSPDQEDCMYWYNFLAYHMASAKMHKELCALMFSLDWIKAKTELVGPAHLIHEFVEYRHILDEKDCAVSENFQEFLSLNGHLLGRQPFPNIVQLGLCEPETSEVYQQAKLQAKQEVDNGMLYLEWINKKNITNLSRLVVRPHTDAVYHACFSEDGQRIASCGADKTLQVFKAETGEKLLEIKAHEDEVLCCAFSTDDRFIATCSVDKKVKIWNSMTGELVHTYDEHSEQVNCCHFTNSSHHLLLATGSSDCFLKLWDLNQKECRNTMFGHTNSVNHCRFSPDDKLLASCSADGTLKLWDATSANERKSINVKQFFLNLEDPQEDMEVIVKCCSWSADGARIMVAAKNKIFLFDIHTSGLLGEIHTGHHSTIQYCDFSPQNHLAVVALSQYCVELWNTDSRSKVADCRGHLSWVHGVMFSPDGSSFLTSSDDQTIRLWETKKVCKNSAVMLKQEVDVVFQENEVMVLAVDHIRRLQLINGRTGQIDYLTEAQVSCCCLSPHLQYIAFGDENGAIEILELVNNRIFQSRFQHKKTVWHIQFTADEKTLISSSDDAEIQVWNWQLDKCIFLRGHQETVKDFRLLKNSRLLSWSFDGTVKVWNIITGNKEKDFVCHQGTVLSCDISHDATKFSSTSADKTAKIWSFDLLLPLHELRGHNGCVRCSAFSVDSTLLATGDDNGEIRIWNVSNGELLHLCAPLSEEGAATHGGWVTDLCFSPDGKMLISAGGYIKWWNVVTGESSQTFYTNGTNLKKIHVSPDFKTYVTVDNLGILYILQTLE

[8] = SAR analysis of small molecule inhibitors of Apaf-1 using a LZ-Caspase-9/Caspase-3 Fluorescent Selectivity assay - Set 2.; format: functional; conditions: read-out: IC50_Mean
[9] = biological target: T2, Insulin-degrading enzyme (Homo sapiens, UniProt P14735); assay: activators of recombinant IDE enzyme, dose response, counter-screen for IDE activator project, biochemical, fluorescence polarization (AID 588681)
T2 sequence (P14735 whole entry): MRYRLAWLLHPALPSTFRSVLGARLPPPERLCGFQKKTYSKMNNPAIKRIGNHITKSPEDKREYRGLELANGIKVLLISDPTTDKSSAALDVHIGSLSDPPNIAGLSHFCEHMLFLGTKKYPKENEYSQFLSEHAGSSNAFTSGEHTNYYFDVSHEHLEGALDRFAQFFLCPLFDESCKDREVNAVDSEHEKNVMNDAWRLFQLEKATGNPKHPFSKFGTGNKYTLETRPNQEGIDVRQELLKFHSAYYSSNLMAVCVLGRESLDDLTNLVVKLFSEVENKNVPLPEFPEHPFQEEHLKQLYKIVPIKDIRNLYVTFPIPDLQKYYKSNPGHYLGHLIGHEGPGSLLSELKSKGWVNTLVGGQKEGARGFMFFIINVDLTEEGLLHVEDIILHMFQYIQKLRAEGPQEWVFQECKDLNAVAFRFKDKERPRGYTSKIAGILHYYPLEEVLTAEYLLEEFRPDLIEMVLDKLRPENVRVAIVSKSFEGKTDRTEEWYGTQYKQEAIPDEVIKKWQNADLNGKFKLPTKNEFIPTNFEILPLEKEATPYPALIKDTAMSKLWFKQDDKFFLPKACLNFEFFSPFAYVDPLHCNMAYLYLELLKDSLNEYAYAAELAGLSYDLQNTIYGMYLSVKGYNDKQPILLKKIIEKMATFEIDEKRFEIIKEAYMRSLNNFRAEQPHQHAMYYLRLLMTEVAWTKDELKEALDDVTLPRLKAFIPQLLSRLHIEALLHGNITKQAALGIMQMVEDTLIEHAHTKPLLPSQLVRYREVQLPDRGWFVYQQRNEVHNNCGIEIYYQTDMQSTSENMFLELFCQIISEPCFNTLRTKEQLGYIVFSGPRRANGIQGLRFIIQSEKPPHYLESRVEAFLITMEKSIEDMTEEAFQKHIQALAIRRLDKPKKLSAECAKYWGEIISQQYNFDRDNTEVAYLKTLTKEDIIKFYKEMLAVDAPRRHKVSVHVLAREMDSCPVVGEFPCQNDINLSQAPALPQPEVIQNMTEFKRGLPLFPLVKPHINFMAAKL

[10] = biological target: T2, Insulin-degrading enzyme; assay: activators of endogenous IDE in HEK cells, dose response, cell-based, fluorescence polarization (AID 588439); format: functional
[11] = tested on: HEK293; assay: HEK cell cytotoxicity by LDH release, dose response, cytotoxicity control for IDE activator project, fluorescence, HEK cells (AID 588440); format: functional, cell-based; conditions: Homo sapiens;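 also: cytotoxicity by LDH release measuring loss of membrane integrity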
[12] = tested on: HEK293; assay: optical interference in Abeta FP readout, dose response, artefact control for IDE activator project, biochemical, fluorescence polarization (AID 588442); format: functional, cell-based; conditions: Homo sapiens

DNA dC->dU-editing enzyme APOBEC-3G, sequence (Q9HC16 whole entry): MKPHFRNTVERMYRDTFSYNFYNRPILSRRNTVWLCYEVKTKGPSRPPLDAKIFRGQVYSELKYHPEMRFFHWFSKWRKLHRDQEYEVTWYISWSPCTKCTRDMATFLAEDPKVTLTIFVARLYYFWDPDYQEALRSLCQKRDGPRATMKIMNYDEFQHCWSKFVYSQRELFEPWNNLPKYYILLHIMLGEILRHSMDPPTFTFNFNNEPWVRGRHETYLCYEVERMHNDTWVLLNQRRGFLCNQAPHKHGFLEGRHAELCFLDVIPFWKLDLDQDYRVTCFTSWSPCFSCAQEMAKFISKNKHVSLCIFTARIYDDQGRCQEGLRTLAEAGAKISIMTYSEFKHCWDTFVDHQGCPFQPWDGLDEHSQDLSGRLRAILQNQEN
Serine/threonine-protein kinase Chk1, sequence (O14757 whole entry): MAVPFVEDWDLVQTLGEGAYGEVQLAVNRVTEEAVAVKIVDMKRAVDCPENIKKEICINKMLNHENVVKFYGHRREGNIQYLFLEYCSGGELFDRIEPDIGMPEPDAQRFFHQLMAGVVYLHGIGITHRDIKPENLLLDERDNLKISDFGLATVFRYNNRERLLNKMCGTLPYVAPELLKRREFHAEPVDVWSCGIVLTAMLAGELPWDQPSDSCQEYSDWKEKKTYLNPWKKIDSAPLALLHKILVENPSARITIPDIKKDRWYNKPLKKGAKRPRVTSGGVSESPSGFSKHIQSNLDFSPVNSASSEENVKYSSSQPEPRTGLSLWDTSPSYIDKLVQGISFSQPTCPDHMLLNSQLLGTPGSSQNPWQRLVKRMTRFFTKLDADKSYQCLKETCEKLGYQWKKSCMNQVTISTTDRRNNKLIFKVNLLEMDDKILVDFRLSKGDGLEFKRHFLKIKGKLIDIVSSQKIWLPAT
DNA dC->dU-editing enzyme APOBEC-3A, sequence (P31941 whole entry): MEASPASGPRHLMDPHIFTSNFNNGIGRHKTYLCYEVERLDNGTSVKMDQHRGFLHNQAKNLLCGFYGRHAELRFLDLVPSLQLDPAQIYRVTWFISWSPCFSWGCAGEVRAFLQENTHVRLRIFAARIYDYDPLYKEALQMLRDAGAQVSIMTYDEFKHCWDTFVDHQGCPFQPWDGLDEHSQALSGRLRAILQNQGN
Dual specificity mitogen-activated protein kinase kinase 1, sequence (Q02750 whole entry): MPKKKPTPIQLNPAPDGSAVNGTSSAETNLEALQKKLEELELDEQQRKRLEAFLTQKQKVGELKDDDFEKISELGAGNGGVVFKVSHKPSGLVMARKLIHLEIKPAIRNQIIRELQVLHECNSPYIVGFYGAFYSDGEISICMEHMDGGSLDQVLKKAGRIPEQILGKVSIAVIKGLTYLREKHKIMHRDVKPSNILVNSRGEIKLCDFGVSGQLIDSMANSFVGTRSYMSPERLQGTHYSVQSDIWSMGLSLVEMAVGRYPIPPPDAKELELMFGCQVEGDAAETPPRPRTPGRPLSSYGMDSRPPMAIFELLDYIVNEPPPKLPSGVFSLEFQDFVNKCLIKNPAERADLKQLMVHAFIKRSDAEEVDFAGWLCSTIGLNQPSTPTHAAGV

Question: Which CC50 [1] does the source give for COC(=O)c1ccc(CNc2c(N3CCCC3)c(=O)c2=O)cc1 here?
Answer: > 100 µM (active)

Question: And the CC50 [2]?
Answer: > 100 µM (active)

Question: What does the source list for CN(C)Cc1ccc2c(c1)NC(=O)C1CCCN21 (configuration not stated)?
Answer: Ki [3]: 1.58 µM (active); Ki [4]: 3.16 µM (active)

Question: What does the source list for CN1CC2=C(N=C1NCCCO)c1ccccc1CC21CCCCC1?
Answer: IC50 [5]: > 99 µM (inactive); IC50 [6]: > 99 µM (inactive)

Question: For Cc1cc(C)c2c(c1)N(Cc1ccc(Cl)c(Cl)c1)C(=O)C2=O, which IC50 [7] is on record?
Answer: 42 µM (active)

Question: And the IC50 [8]?
Answer: 20.1 µM (active)

Question: Which EC50 [9] does the source give for O=C(O)c1ccccc1NC(=O)C1CCN(S(=O)(=O)c2cccc3nsnc23)CC1 here?
Answer: > 54.7 µM (inactive)

Question: And the EC50 [10]?
Answer: > 18.2 µM (inactive)

Question: And the IC50 [11]?
Answer: > 89.2 µM (inactive)

Question: What about the EC50 [12] of the same compound?
Answer: 2.44 µM (active)
